Reference: PubChem BioAssay (NCI)
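Growth conditions: 96-well plates. Treatment: test compound, 48 hours, 5 concentrations. Analysis: linear interpolation between bracketing concentrations; unreached endpoints set to highest concentration. GI50 is the concentration that inhibits growth by half. TGI is the concentration that stops growth completely.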

Assays:
Assay in all cases: NCI tumour cell line growth inhibition, 48 h
786-0 renal = test system: 786-0 renal
A498 renal = test system: A498 renal
A549 NSCLC = test system: A549 NSCLC
ACHN renal = test system: ACHN renal
BT-549 breast = test system: BT-549 breast
CAKI-1 renal = test system: CAKI-1 renal
CCRF-CEM leukemia = test system: CCRF-CEM leukemia
COLO 205 colon = test system: COLO 205 colon
DU-145 prostate = test system: DU-145 prostate
EKVX NSCLC = test system: EKVX NSCLC
HCC-2998 colon = test system: HCC-2998 colon
HCT-116 colon = test system: HCT-116 colon
HCT-15 colon = test system: HCT-15 colon
HL-60(TB) leukemia = test system: HL-60(TB) leukemia
HOP-62 NSCLC = test system: HOP-62 NSCLC
HOP-92 NSCLC = test system: HOP-92 NSCLC
HS 578T breast = test system: HS 578T breast
HT29 colon = test system: HT29 colon
IGROV1 ovarian = test system: IGROV1 ovarian
K-562 leukemia = test system: K-562 leukemia
KM12 colon = test system: KM12 colon
LOX IMVI melanoma = test system: LOX IMVI melanoma
M14 melanoma = test system: M14 melanoma
MALME-3M melanoma = test system: MALME-3M melanoma
MCF7 breast = test system: MCF7 breast
MDA-MB-231 breast = test system: MDA-MB-231 breast
MDA-MB-435 = test system: MDA-MB-435
MDA-MB-468 breast = test system: MDA-MB-468 breast
MOLT-4 leukemia = test system: MOLT-4 leukemia
NCI-H226 lung = test system: NCI-H226 lung
NCI-H23 lung = test system: NCI-H23 lung
NCI-H460 lung = test system: NCI-H460 lung
NCI-H522 lung = test system: NCI-H522 lung
NCI/ADR-RES ovarian = test system: NCI/ADR-RES ovarian
OVCAR-3 ovarian = test system: OVCAR-3 ovarian
OVCAR-4 ovarian = test system: OVCAR-4 ovarian
OVCAR-5 ovarian = test system: OVCAR-5 ovarian
OVCAR-8 ovarian = test system: OVCAR-8 ovarian
PC-3 prostate = test system: PC-3 prostate
RPMI-8226 leukemia = test system: RPMI-8226 leukemia
RXF 393 renal = test system: RXF 393 renal
SF-268 CNS = test system: SF-268 CNS
SF-295 CNS = test system: SF-295 CNS
SF-539 CNS = test system: SF-539 CNS
SK-MEL-2 melanoma = test system: SK-MEL-2 melanoma
SK-MEL-28 melanoma = test system: SK-MEL-28 melanoma
SK-MEL-5 melanoma = test system: SK-MEL-5 melanoma
SK-OV-3 ovarian = test system: SK-OV-3 ovarian
SN12C renal = test system: SN12C renal
SNB-19 CNS = test system: SNB-19 CNS
SNB-75 CNS = test system: SNB-75 CNS
SR leukemia = test system: SR leukemia
SW-620 colon = test system: SW-620 colon
T-47D breast = test system: T-47D breast
TK-10 renal = test system: TK-10 renal
U251 CNS = test system: U251 CNS
UACC-257 melanoma = test system: UACC-257 melanoma
UACC-62 melanoma = test system: UACC-62 melanoma
UO-31 renal = test system: UO-31 renal

O=C(NO)c1ccc(CN2CCN(c3nc(-c4ccccc4)c4ccccc4n3)CC2)cc1
GI50 (786-0 renal): 5.81 µM | TGI (786-0 renal): 19.1 µM | GI50 (A498 renal): 8.03 µM | TGI (A498 renal): > 23.7 µM | GI50 (A549 NSCLC): 4.57 µM | TGI (A549 NSCLC): 11.5 µM | GI50 (ACHN renal): 4.06 µM | TGI (ACHN renal): 10.2 µM | GI50 (BT-549 breast): 8.64 µM | TGI (BT-549 breast): > 23.7 µM | GI50 (CAKI-1 renal): 5.15 µM | TGI (CAKI-1 renal): 20.2 µM | GI50 (CCRF-CEM leukemia): 2.89 µM | TGI (CCRF-CEM leukemia): > 23.7 µM | GI50 (COLO 205 colon): 5.13 µM | TGI (COLO 205 colon): 12.3 µM | GI50 (DU-145 prostate): 5.63 µM | TGI (DU-145 prostate): 17 µM | GI50 (EKVX NSCLC): 4.94 µM | TGI (EKVX NSCLC): 11.8 µM | GI50 (HCC-2998 colon): 4.03 µM | TGI (HCC-2998 colon): 9.97 µM | GI50 (HCT-116 colon): 2.95 µM | TGI (HCT-116 colon): 20.2 µM | GI50 (HCT-15 colon): 1.08 µM | TGI (HCT-15 colon): 7.77 µM | GI50 (HL-60(TB) leukemia): 6.99 µM | TGI (HL-60(TB) leukemia): > 23.7 µM | GI50 (HOP-62 NSCLC): 8.88 µM | TGI (HOP-62 NSCLC): > 23.7 µM | GI50 (HOP-92 NSCLC): 5.02 µM | TGI (HOP-92 NSCLC): 21.6 µM | GI50 (HS 578T breast): 7.85 µM | TGI (HS 578T breast): > 23.7 µM | GI50 (HT29 colon): 5.75 µM | TGI (HT29 colon): > 23.7 µM | GI50 (IGROV1 ovarian): 4.55 µM | TGI (IGROV1 ovarian): 11 µM | GI50 (K-562 leukemia): 5.8 µM | TGI (K-562 leukemia): > 23.7 µM | GI50 (KM12 colon): 7.77 µM | TGI (KM12 colon): > 23.7 µM | GI50 (LOX IMVI melanoma): 2.97 µM | TGI (LOX IMVI melanoma): 6.12 µM | GI50 (M14 melanoma): 6.26 µM | TGI (M14 melanoma): > 23.7 µM | GI50 (MALME-3M melanoma): 5.2 µM | TGI (MALME-3M melanoma): 18.3 µM | GI50 (MCF7 breast): 4.4 µM | TGI (MCF7 breast): 23.4 µM | GI50 (MDA-MB-231 breast): 3.4 µM | TGI (MDA-MB-231 breast): 11 µM | GI50 (MDA-MB-435): 6.64 µM | TGI (MDA-MB-435): > 23.7 µM | GI50 (MDA-MB-468 breast): 2.74 µM | TGI (MDA-MB-468 breast): 7.23 µM | GI50 (MOLT-4 leukemia): 5.59 µM | TGI (MOLT-4 leukemia): > 23.7 µM | GI50 (NCI-H226 lung): 4.09 µM | TGI (NCI-H226 lung): 13.3 µM | GI50 (NCI-H23 lung): 3.67 µM | TGI (NCI-H23 lung): 7.89 µM | GI50 (NCI-H460 lung): 3.66 µM | TGI (NCI-H460 lung): 8.5 µM | GI50 (NCI-H522 lung): 4.57 µM | TGI (NCI-H522 lung): 14.1 µM | GI50 (NCI/ADR-RES ovarian): 3.24 µM | TGI (NCI/ADR-RES ovarian): 7.86 µM | GI50 (OVCAR-3 ovarian): 4.32 µM | TGI (OVCAR-3 ovarian): 15.1 µM | GI50 (OVCAR-4 ovarian): 4.3 µM | TGI (OVCAR-4 ovarian): > 23.7 µM | GI50 (OVCAR-5 ovarian): 4.61 µM | TGI (OVCAR-5 ovarian): 12.4 µM | GI50 (OVCAR-8 ovarian): 4.78 µM | TGI (OVCAR-8 ovarian): 12.9 µM | GI50 (PC-3 prostate): 4.18 µM | TGI (PC-3 prostate): > 23.7 µM | GI50 (RPMI-8226 leukemia): 5.6 µM | TGI (RPMI-8226 leukemia): > 23.7 µM | GI50 (RXF 393 renal): 2.9 µM | TGI (RXF 393 renal): 8.53 µM | GI50 (SF-268 CNS): 6.59 µM | TGI (SF-268 CNS): 20.7 µM | GI50 (SF-295 CNS): 4.5 µM | TGI (SF-295 CNS): 11 µM | GI50 (SF-539 CNS): 3.97 µM | TGI (SF-539 CNS): 7.92 µM | GI50 (SK-MEL-2 melanoma): 7.78 µM | TGI (SK-MEL-2 melanoma): > 23.7 µM | GI50 (SK-MEL-28 melanoma): 6.83 µM | TGI (SK-MEL-28 melanoma): > 23.7 µM | GI50 (SK-MEL-5 melanoma): 3.67 µM | TGI (SK-MEL-5 melanoma): 6.91 µM | GI50 (SK-OV-3 ovarian): 5.61 µM | TGI (SK-OV-3 ovarian): 13.5 µM | GI50 (SN12C renal): 5.65 µM | TGI (SN12C renal): 19.4 µM | GI50 (SNB-19 CNS): 6.27 µM | TGI (SNB-19 CNS): > 23.7 µM | GI50 (SNB-75 CNS): 3.76 µM | TGI (SNB-75 CNS): > 23.7 µM | GI50 (SR leukemia): > 23.7 µM | TGI (SR leukemia): > 23.7 µM | GI50 (SW-620 colon): 4.8 µM | TGI (SW-620 colon): 15.1 µM | GI50 (T-47D breast): 6.05 µM | TGI (T-47D breast): 23.2 µM | GI50 (TK-10 renal): 7.04 µM | TGI (TK-10 renal): > 23.7 µM | GI50 (U251 CNS): 6.19 µM | TGI (U251 CNS): > 23.7 µM | GI50 (UACC-257 melanoma): 6.94 µM | TGI (UACC-257 melanoma): > 23.7 µM | GI50 (UACC-62 melanoma): 3.74 µM | TGI (UACC-62 melanoma): 8.28 µM | GI50 (UO-31 renal): 3 µM | TGI (UO-31 renal): 7.24 µM
